Article PMC8161373, “New Cardenolides from Biotransformation of Gitoxigenin by the Endophytic Fungus Alternaria eureka 1E1BL1: Characterization and Cytotoxic Activities” (Molecules, 2021)
Values after ≈ are worked out from the molar mass of the structure shown. Read-outs that look alike come from different tables or passages of the source.

Assays:
[1] = system: A549 human lung cancer cell line; assay: MTT cell viability assay, A549; type: cell-based; settings: 48 h treatment, n = 3
Experimental: (§1) Cytotoxicity of the metabolites and substrate were evaluated in various cancer cell lines (pancreatic: PANC-1, MIA PaCa-2; prostate: DU 145 and lung: A549) and two healthy cell lines (lung: MRC-5 and kidney: HEK-293) by MTT cell viability assay (Table 3).
(§2) To see cytotoxic effects of the obtained metabolites, a standard MTT (3-(4,5-dimethylthiazol-2-yl)-2,5-diphenyltetrazolium bromide) cell viability assay was performed on human cancer cell lines PANC-1 (pancreatic, ATCC® CRL-1469™), MIA PaCa-2 (pancreatic, ATCC® CRL-1420™), DU 145 (prostate, ATCC® HTB-81™) and A549 (lung, ATCC® CCL-185™) and two healthy cell lines MRC-5 (lung, ATCC® CCL-171™) and HEK-293 (kidney, ATCC® CRL-1573™) according to manufacturer’s instructions (M2128, Sigma-Aldrich®). For this purpose, cells at 80–90% confluency were seeded to 96-well plates as 5-10x10^3 cells/well in Eagle Minimal Essential Medium (EMEM) or Dulbecco Modified Eagle Medium (DMEM); supplemented with 10% FBS and 1% L-glutamine depending on the cell type and incubated in a humidified incubator at 37 °C with 5% CO2 atmosphere for 24 h. After cell adhesion, gitoxigenin and the metabolites were applied to the cells in triplicate with concentrations ranging between 0.001 and 10 µM. After 48 h exposure to certain concentrations of the compounds, medium was replaced with fresh one containing 10% MTT and plates were incubated for 3 h in the dark for the conversion of tetrazolium salts to formazan crystals by mitochondrial metabolism of viable cells. After incubation, formazan crystals were dissolved in DMSO and absorbance of each well were measured at 570 nm via microplate reader (Synergy™ HTX- BioTek, Winooski, VT, USA). Doxorubicin (10 nM, 1 µM and 4 µM) was used as positive control, whereas oleandrin (1 nM, 10 nM and 100 nM) was the second positive control as a potent cardenolide.
(§3) All compounds were dissolved in DMSO (Sigma Aldrich, St. Louis, MO, USA) and the final DMSO concentration applied to cells was 0.02% (v/v), which is non-toxic to cells. The IC50 values of the compounds were calculated by the normalization of optical densities (OD) to negative control DMSO (0.02%, v/v).

[2] = system: DU 145 human prostate cancer cell line; assay: MTT cell viability assay, DU 145; type: cell-based; settings: 48 h treatment, n = 3
Experimental: as §1, §2, §3

[3] = system: PANC-1 human pancreatic cancer cell line; assay: MTT cell viability assay, PANC-1; type: cell-based; settings: 48 h treatment, n = 3
Experimental: as §1, §2, §3

[4] = system: Mia PaCa-2 pancreatic cancer cell line; assay: MTT cell viability assay, MIA PaCa-2; type: cell-based; settings: Homo sapiens, 48 h treatment, n = 3
Experimental: as §1, §2, §3

[5] = system: HEK-293 human embryonic kidney cell line; assay: MTT cell viability assay, HEK-293 (healthy); type: cell-based; settings: for IC50: Homo sapiens, HEK293, healthy cell line, 48 h treatment, MTT, n = 3
Experimental: as §1, §2, §3

[6] = system: MRC-5 human lung fibroblast cell line; assay: MTT cell viability assay, MRC-5 (healthy); type: cell-based; settings: MRC5, 48 h treatment, n = 3
Experimental: as §1, §2, §3

[7] = system: A549, DU 145, PANC-1, MIA PaCa-2 cell lines; assay: MTT cell viability assay, four cancer cell lines together; type: cell-based; settings: Homo sapiens; range over four cancer cell lines; read-out: IC50 values ranging over A549, DU 145, PANC-1, MIA PaCa-2 cell lines
Experimental: as §1
To see cytotoxic effects of the obtained metabolites, a standard MTT (3-(4,5-dimethylthiazol-2-yl)-2,5-diphenyltetrazolium bromide) cell viability assay was performed on human cancer cell lines PANC-1 (pancreatic, ATCC® CRL-1469™), MIA PaCa-2 (pancreatic, ATCC® CRL-1420™), DU 145 (prostate, ATCC® HTB-81™) and A549 (lung, ATCC® CCL-185™) and two healthy cell lines MRC-5 (lung, ATCC® CCL-171™) and HEK-293 (kidney, ATCC® CRL-1573™) according to manufacturer’s instructions (M2128, Sigma-Aldrich®). […] After incubation, formazan crystals were dissolved in DMSO and absorbance of each well were measured at 570 nm via microplate reader (Synergy™ HTX- BioTek, Winooski, VT, USA). […]
as §3

dengue virus = system: dengue virus; set-up: method as in PMID 22155902; settings: immunofluorescence screen, hit criteria ≥40% inhibition; cited from earlier work
HeLa cells [8] = system: HeLa cells; set-up: method as in PMID 12054363; settings: homogeneous plate-reader assay; read-out: EC50 anticancer effect against HeLa cells; cited from earlier work
[9] = system: TK-10 (renal adenocarcinoma); set-up: method as in PMID 14531018; settings: cited from earlier work
UACC-62 (melanoma) = system: UACC-62 (melanoma); set-up: method as in PMID 14531018; settings: cited from earlier work
[10] = system: MCF-7 (breast adenocarcinoma); set-up: method as in PMID 14531018; settings: cited from earlier work
HeLa cells [11] = system: HeLa cells; set-up: method as in PMID 5589524; settings: cited from earlier work
[12] = system: human nasopharynx carcinoma; set-up: method as in PMID 5014314; settings: cited from earlier work
[13] = system: infectious virus production (COVID-19); set-up: method as in doi:10.1101/2020.07.15.203489; settings: in vitro, cited from earlier work

| Compound | IC50 [1] [µM] | IC50 [2] [µM] | IC50 [3] [µM] | IC50 [4] [µM] | IC50 [5] [µM] | IC50 [6] [µM] | IC50 [7] [µM] | inhibition of dengue virus (dengue virus) [%] | EC50 (HeLa cells [8]) [µM] | IC50 [9] [µM] | IC50 (UACC-62 (melanoma)) [µM] | IC50 [10] [µM] | growth inhibitory effect on HeLa cells (HeLa cells [11]) [µg/mL] | ED50 in vitro inhibitory activity against human nasopharynx carcinoma [12] [mg/L] | reduction in infectious virus production ([13]; 0.05 µg/mL) [fold] | reduction in infectious virus production ([13]; 0.1 µg/mL) [fold] | toxicity on healthy cell line HEK-293 ([5]; up to concentration of 10 µM) |
| --- | --- | --- | --- | --- | --- | --- | --- | --- | --- | --- | --- | --- | --- | --- | --- | --- | --- |
| C[C@]12CC[C@H](O)C[C@H]1CCC1C2CC[C@]2(C)[C@@H](C3=CC(=O)OC3)[C@@H](O)C[C@]12O (stereo partly drawn) [Gitoxigenin, 4-((3S,5R,10S,13R,14S,16S,17R)-3,14,16-Trihydroxy-10,13-dimethylhexadecahydro-1H-cyclopenta[a]phenanthren-17-yl) furan-2(5H)-one] | 2.19 | 4.08 | 1.53 | 3.1 | 7.6 | 0.815 | 1.53 to 4.08 | 49.01 | 2.1 | 0.415 ± 0.03 | 2.83 ± 0.17 | 1.8 ± 0.32 | 2.25 | 2.3 (≈ 5.89 µM) |  |  |  |
| C[C@]12CCC(=O)C[C@H]1CCC1C2CC[C@]2(C)[C@@H](C3=CC(=O)OC3)[C@@H](O)C[C@]12O (stereo partly drawn) [Compound 2, 4-((5R,10S,13R,14S,16S,17R)-14,16-Dihydroxy-10,13-dimethyl-3-oxohexadecahydro-1H-cyclopenta[a]phenanthren-17-yl)furan-2(5H)-one] | > 10 | > 10 | > 10 | > 10 | > 10 | > 10 |  |  |  |  |  |  |  |  |  |  |  |
| C[C@]12CCC(=O)C[C@H]1CCC1C2CC(O)[C@]2(C)[C@@H](C3=CC(=O)OC3)[C@@H](O)C[C@]12O (stereo partly drawn) [Compound 7, 4-((5R,10S,13S,14S,16S,17R)-12,14,16-Trihydroxy-10,13-dimethyl-3-oxohexadecahydro-1H-cyclopenta[a]phenanthren-17-yl)furan-2(5H)-one] | > 10 | > 10 | 6.24 | > 10 | > 10 | > 10 |  |  |  |  |  |  |  |  |  |  |  |
| CO[C@H]1C[C@H](O[C@H]2CC[C@@]3(C)[C@H](CC[C@@H]4[C@@H]3CC[C@]3(C)[C@@H](C5=CC(=O)OC5)[C@@H](OC(C)=O)C[C@]43O)C2)O[C@@H](C)[C@@H]1O [Oleandrin, reference compound] | 0.0426 | 0.021 | 0.0387 | 0.035 | 0.073 | 0.0173 |  |  |  |  |  |  |  |  | 78 | 100 |  |
| COc1cccc2c1C(=O)c1c(O)c3c(c(O)c1C2=O)C[C@@](O)(C(=O)CO)C[C@@H]3O[C@H]1C[C@H](N)[C@H](O)[C@H](C)O1 [Doxorubicin, reference compound] | 0.62 | 0.19 | > 10 | 0.59 | 0.587 | 0.865 |  |  |  |  |  |  |  |  |  |  |  |
| C[C@]12CC[C@@H](O)C[C@H]1CC(O)C1C2CC[C@]2(C)[C@@H](C3=CC(=O)OC3)[C@@H](O)C[C@]12O (stereo partly drawn) [Compound 6, 4-((3R,5S,10S,13R,14S,16S,17R)-3,7,14,16-Tetrahydroxy-10,13-dimethylhexadecahydro-1H-cyclopenta[a]phenanthren-17-yl)furan-2(5H)-one] | > 10 | > 10 | > 10 | > 10 | > 10 | > 10 |  |  |  |  |  |  |  |  |  |  |  |
| C[C@]12CC[C@@H](O)C[C@H]1CCC1C2CC(O)[C@]2(C)[C@@H](C3=CC(=O)OC3)[C@@H](O)C[C@]12O (stereo partly drawn) [Compound 8, 4-((3R,5R,10S,13S,14S,16S,17R)-3,12,14,16-Tetrahydroxy-10,13-dimethylhexadecahydro-1H-cyclopenta[a]phenanthren-17-yl)furan-2(5H)-one] | 8.25 | > 10 | 1.95 | 3.4 | > 10 | 9.35 |  |  |  |  |  |  |  |  |  |  | without causing toxicity |
| C[C@]12CCC(=O)C[C@H]1CC(O)C1C2CC(O)[C@]2(C)[C@@H](C3=CC(=O)OC3)[C@@H](O)C[C@]12O (stereo partly drawn) [Compound 3, 4-((5R,10S,13S,14S,16S,17R)-7,12,14,16-Tetrahydroxy-10,13-dimethyl-3-oxohexadecahydro-1H-cyclopenta[a]phenanthren-17-yl)furan-2(5H)-one] | > 10 | > 10 | > 10 | > 10 | > 10 | > 10 |  |  |  |  |  |  |  |  |  |  |  |
| COC1(OC)CC[C@]2(C)C3CC[C@]4(C)[C@@H](C5=CC(=O)OC5)[C@@H](O)C[C@]4(O)C3C(O)C[C@@H]2C1 (stereo partly drawn) [Compound 4, 4-((5R,10S,13R,14S,16S,17R)-7,14,16-Trihydroxy-3,3-dimethoxy-10,13-dimethylhexadecahydro-1H-cyclopenta[a]phenanthren-17-yl)furan-2(5H)-one] | > 10 | > 10 | > 10 | > 10 | > 10 | > 10 |  |  |  |  |  |  |  |  |  |  |  |
| C[C@]12CC[C@@H](O)C[C@H]1CCC1C2CC[C@]2(C)[C@@H](C3=CC(=O)OC3)[C@@H](O)C[C@]12O (stereo partly drawn) [Compound 5, 4-((3R,5R,10S,13R,14S,16S,17R)-3,14,16-Trihydroxy-10,13-dimethylhexadecahydro-1H-cyclopenta[a]phenanthren-17-yl)furan-2(5H)-one] | > 10 | > 10 | > 10 | > 10 | > 10 | > 10 |  |  |  |  |  |  |  |  |  |  |  |
| C[C@]12CCC(=O)C[C@H]1CC(O)C1C2CC[C@]2(C)[C@@H](C3=CC(=O)OC3)[C@@H](O)C[C@]12O (stereo partly drawn) [Compound 1, 4-((5R,10S,13R,14S,16S,17R)-7,14,16-Trihydroxy-10,13-dimethyl-3-oxohexadecahydro-1H-cyclopenta[a]phenanthren-17-yl)furan-2(5H)-one] | > 10 | > 10 | > 10 | > 10 | > 10 | > 10 |  |  |  |  |  |  |  |  |  |  |  |
